The results in this text go back to US8119661B2, “Piperidine derivatives and their use as muscarinic receptor modulators” (AstraZeneca AB, priority 2007, dated 2012).

The subject of this assay is SNL rats (heat hyperalgesia). As to the kind of experiment: Rat SNL heat hyperalgesia assay. It counts as in vivo. Conditions: sc, male Sprague Dawley SNL rats, paw withdrawal latency, morphine s.c. 30 min before testing, example 2 per os 60 min before testing, combination ratio example 2:morphine 1:1.56.

As a reminder, the ED50 is the midpoint of the dose-response relation.

Protocol: Rats undergo spinal nerve ligation surgery as described in Kim and Chung (1992) (reference 1). Briefly, rats are anesthetized with isoflurane, the left L5 and L6 are isolated and tightly ligated with 4-0 silk thread. The wound is closed by suturing and applying tissue adhesive. Compound testing is performed at day 9 to day 36 post-surgery.
For behavioral testing, the animals are acclimatized to the test room environment for a minimum of 30 min. In order to assess the degree of hyperalgesia, the animals are placed on a glass surface (maintained at 30° C.), and a heat-source is focused onto the plantar surface of the left paw. The time from the initiation of the heat until the animal withdraws the paw is recorded. Each animal is tested twice (with an interval of 10 min between the two tests). A decrease in Paw Withdrawal Latency (PWL, average of the two tests) relative to naïve animals indicates a hyperalgesic state. The rats with a PWL of at least 2 seconds less than average PWL of Naïve group are selected for compound testing. […]
In order to assess the degree of heat hyperalgesia, the rats were individually placed in Plexiglas boxes on the glass surface (maintained at 30° C.) of a paw thermal stimulator system (Model 390, series 8, IITC Life Science, Woodland Hills, USA) and allowed to acclimate for 30 min. […] Paw withdrawal latencies (PWLs) were calculated as the mean of the two values.

As to `CC(C)OC(=O)N1CCC(C)(N2CCC(N3C(=O)N[C@H]4CCCC[C@@H]43)CC2)CC1` [Example 02, Propan-2-yl 4-[4-[(3aS,7aS)-2-oxo-3a,4,5,6,7,7a-hexahydro-3H-benzoimidazol-1-yl]-1-piperidyl]-4-methyl-piperidine-1-carboxylate], the ED50 was 2.4 µmol/kg.
